From publication PMC9858543, “Design, synthesis and evaluation of 2, 6, 8-substituted Imidazopyridine derivatives as potent PI3Kα inhibitors” (Journal of Enzyme Inhibition and Medicinal Chemistry, 2023) come the findings set out here.

One data set has as its target T1, PI3Kα (Homo sapiens, UniProt P42336).
T1 construct: purchased Invitrogen
The data set can be described thus: In vitro PI3Kα enzymatic assay (ADP-Glo / Kinase-Glo, ATP 25 μM). Type of data set: biochemical. Conditions: ATP 25 μM. The method, then:
To screen the inhibitory activity of the target compounds against PI3Kα, the Kinase-Glo™ assay with ATP at 25 μM was utilised with PIK-75 as positive control. We chose to explore the SARs at three positions on the Imidazo[1,2-a]pyridine core. To start with, a set of 8-position modifications were prepared while keeping the morpholinyl amide substituent on 2-position fixed, since it allowed quick structure − activity profiling via coupling reactions of bromide with aryl borates or boronic acids. […] We then turned our attention back to the phenyl substituents.
Briefly, the compound, PI3K enzyme (PI3Kα from Invitrogen), the PIP2 (Life Technologies) substrate, and ATP (25 μM, Sigma) were diluted in kinase buffer to the indicated concentrations. The assay plate was covered and incubated at room temperature for 1 h. Then, the Kinase-Glo reagent (Promega) was added to the PI3Kα plate to stop the reaction, mixed briefly with centrifuge, shaken slowly on the shaker and then equilibrate for 120 min. Finally, add Kinase detection reagent to each well, shake 1 min, equilibrate for 30 min before reading on a plate reader for luminescence. The data were collected on Envision and presented in Excel. IC50 values were calculated from the inhibition curves.
For orientation: In ADP-Glo the light output rises with the ADP produced.

Data set [1] can be described thus: Liver microsomal stability assay, RLM. Type of data set: in vitro ADME, rat. Here is the method: The metabolic stability of compound 35 was determined in human or SD rat liver microsomes, with and without the NADPH regenerating system. Briefly, compound 35 was incubated with microsomes (human microsome, CORNING, lot No. 38296; rat microsome, Xenotech, Lot No. 2110178) (0.5 mg protein/mL) at 1 μM at 37 °C in potassium phosphate buffer (100 mM at pH 7.4 with 10 mM MgCl2). The reactions were initiated by adding prewarmed cofactors (1 mmol NADPH). After incubation for different times (0, 5, 10, 20, 30, and 60 min) at 37 °C, cold acetonitrile containing 200 ng/mL tolbutamide and 200 ng/mL labetalol as internal standards was added to precipitate the protein. Then, the samples were centrifuged, and the supernatants were transferred into HPLC water, mixed by plate shaker for 10 min prior to LC − MS/MS analysis.
(In general: Microsomes from liver hold many membrane-bound enzymes, among them those of drug oxidation.)

Another data set concerns T47D cells. As to the kind of experiment: Cell cycle analysis, PI flow cytometry. The data set is classed as cell-based, human. To be noted: 24 h. The method, then: Considering compound 35 was most sensitive in T47D cells, we decided to get some mechanistic insight into the mode of action in T47D cell line. As such, the annexin V/7-AAD staining and cell cycle phase distribution have been carried out. […] Furthermore, T47D cells were also treated with different concentrations of 35, and the percentage of apoptotic cells was measured.
For cell cycle analysis, T47D cell (1 × 10^6) were seeded in 6-well plates overnight and treated with different concentrations of compound 35 and DMSO control on the next day. After 24 h, the cells were collected by EDTA-free trypsinization, centrifuged at 1500 rpm for 5 min, and fixed in 75% ethanol at −20 °C for 1 h. The cells were then centrifuged at 2000 rpm for 5 min, resuspended in 500 µL PI/Rnase Staining Buffer, incubated for 30 min at room temperature, and analysed using flow cytometry. The data were analysed using Modfit software. For cell apoptosis analysis, T47D cell were seeded in 6 well-plates and treated with DMSO or compound 35 for 24 h. The treated cells were collected and washed with cold PBS for three times, resuspended in 185 µL binding buffer containing 5 μL Annexin V-FITC Apoptosis Detection Kit and 10 μL 7-AAD Viability Staining Solution for 15 min at room temperature in the dark. Apoptotic cells were analysed by flow cytometer.
On the technique in general: Flow cytometry measures light scatter and fluorescence of single cells or particles in a stream.

A further data set deals with T2, CYP3A4 (Homo sapiens, UniProt P08684).
T2 construct: tissue Lot No. 38292; host or cells: human liver microsomes
The data set can be described thus: CYP450 inhibition assay in human liver microsomes. The data set is classed as in vitro ADME. To be noted: 10 μM. Here is the method: (§1) Cytochrome P450 inhibition was evaluated in human liver microsomes (0.253 mg/mL, Lot No. 38292) using five specific probe substrates (CYP1A2, 10 μM phenacetin; CYP2D6, 5 μM dextromethorphan; and CYP3A4, 2 μM midazolam; 2C9, 5 μM Diclofenac; 2C19, 30 μM S-mephenytoin) and positive control in the presence of multiple concentrations of the test compound. After pre-warm at 37 °C for 10 min, the reaction was initiated by the addition of NADPH. The mixture was incubated at 37 °C for 10 min, terminated by the addition of cold stop solution (200 ng/mL tolbutamide and 200 ng/mL labetalol in acetonitrile). The samples were centrifuged, and the supernatants were analysed by LC − MS/MS.

The target in another data set is T3, CYP1A2 (Homo sapiens, UniProt P05177).
T3 construct: tissue Lot No. 38292; host or cells: human liver microsomes
T3 sequence (P05177 1-516): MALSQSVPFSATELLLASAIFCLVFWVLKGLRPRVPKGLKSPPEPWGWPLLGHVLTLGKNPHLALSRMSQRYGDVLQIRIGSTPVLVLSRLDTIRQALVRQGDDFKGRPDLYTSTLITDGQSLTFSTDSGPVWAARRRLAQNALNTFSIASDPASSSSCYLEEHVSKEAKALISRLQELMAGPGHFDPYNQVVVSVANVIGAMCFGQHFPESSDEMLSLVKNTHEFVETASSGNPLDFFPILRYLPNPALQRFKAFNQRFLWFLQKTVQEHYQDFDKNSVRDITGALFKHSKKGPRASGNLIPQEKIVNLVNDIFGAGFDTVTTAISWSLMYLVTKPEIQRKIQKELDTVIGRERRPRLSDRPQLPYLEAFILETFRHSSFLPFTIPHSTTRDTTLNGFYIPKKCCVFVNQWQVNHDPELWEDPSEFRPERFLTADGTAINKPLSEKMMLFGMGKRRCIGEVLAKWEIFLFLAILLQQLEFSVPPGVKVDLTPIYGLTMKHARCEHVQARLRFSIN
As to the kind of experiment: CYP450 inhibition assay in human liver microsomes. Conditions: 10 μM. The data set is classed as in vitro ADME. The method, then:
as §1

The next data set deals with T4, CYP2C9 (Homo sapiens, UniProt P11712).
T4 construct: tissue Lot No. 38292; host or cells: human liver microsomes
As to the kind of experiment: CYP450 inhibition assay in human liver microsomes. Type of data set: in vitro ADME. To be noted: 10 μM. Here is the method: as §1

The target of the next data set is T5, CYP2C19 (Homo sapiens, UniProt P33261).
T5 construct: tissue Lot No. 38292; host or cells: human liver microsomes
The data set can be described thus: CYP450 inhibition assay in human liver microsomes. Type of data set: in vitro ADME. Conditions: 10 μM. The method, then: as §1

A further data set deals with T6, CYP2D6 (Homo sapiens, UniProt P10635).
T6 construct: tissue Lot No. 38292; host or cells: human liver microsomes
As to the kind of experiment: CYP450 inhibition assay in human liver microsomes. Type of data set: in vitro ADME. Conditions: 10 μM. The method, then:
as §1

T1 sequence (P42336 whole entry): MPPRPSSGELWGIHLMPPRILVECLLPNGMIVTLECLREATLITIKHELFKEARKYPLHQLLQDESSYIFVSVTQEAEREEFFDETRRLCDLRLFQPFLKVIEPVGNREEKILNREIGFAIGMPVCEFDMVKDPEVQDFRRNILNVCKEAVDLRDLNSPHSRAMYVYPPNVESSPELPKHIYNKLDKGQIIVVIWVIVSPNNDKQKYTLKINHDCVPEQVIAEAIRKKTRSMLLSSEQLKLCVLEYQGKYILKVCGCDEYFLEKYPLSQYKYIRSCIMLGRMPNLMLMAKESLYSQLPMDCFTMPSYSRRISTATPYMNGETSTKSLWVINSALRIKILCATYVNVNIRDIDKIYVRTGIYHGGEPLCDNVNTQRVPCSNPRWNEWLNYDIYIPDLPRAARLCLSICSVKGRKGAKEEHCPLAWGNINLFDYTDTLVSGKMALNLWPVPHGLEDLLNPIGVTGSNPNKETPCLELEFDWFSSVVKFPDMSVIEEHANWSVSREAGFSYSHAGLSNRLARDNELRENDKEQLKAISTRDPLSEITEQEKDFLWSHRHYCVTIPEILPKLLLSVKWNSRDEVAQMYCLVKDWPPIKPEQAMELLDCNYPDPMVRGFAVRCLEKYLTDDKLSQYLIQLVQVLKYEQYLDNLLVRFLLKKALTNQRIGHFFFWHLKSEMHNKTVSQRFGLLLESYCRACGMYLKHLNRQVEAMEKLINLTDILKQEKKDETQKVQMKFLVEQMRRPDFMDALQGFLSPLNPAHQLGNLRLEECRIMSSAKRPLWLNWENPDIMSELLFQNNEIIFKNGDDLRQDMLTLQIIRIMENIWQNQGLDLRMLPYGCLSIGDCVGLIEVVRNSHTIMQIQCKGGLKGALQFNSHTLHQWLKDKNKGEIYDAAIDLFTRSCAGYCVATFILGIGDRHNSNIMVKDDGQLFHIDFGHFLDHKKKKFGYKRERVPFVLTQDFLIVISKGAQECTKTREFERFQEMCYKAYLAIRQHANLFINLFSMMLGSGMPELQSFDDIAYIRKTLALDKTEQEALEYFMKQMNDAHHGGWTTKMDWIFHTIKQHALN
T1 sequence (P27986 whole entry partner): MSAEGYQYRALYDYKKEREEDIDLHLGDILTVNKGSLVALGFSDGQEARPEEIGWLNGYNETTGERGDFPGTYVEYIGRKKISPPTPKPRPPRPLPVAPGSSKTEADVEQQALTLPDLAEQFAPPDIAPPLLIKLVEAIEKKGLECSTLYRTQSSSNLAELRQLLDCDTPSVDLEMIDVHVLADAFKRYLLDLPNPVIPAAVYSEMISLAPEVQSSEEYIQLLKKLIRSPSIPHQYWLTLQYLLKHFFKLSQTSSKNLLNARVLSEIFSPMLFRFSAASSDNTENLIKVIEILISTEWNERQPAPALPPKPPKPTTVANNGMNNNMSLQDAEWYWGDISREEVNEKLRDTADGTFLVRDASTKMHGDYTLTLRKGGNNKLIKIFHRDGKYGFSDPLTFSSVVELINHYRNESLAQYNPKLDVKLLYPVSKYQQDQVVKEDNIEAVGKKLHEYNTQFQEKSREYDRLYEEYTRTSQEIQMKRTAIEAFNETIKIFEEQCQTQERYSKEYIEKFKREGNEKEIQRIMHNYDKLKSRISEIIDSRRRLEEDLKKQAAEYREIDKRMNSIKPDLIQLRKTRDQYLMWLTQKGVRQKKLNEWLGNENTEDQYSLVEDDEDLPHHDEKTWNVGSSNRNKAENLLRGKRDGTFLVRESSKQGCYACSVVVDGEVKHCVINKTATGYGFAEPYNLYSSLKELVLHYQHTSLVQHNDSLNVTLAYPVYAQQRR
T4 sequence (P11712 whole entry): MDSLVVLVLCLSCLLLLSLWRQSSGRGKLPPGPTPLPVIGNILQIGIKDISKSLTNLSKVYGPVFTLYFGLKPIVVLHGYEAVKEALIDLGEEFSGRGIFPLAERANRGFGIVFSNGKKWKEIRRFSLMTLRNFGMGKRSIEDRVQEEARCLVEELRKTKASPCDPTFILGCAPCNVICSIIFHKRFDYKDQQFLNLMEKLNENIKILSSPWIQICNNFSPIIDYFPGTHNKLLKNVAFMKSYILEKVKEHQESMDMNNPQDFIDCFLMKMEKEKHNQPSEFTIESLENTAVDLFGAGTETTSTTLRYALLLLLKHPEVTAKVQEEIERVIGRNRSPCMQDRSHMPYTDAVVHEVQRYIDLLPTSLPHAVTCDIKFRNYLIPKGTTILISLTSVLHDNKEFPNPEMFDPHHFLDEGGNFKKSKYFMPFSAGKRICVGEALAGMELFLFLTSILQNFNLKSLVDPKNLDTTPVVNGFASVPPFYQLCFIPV
T2 sequence (P08684 whole entry): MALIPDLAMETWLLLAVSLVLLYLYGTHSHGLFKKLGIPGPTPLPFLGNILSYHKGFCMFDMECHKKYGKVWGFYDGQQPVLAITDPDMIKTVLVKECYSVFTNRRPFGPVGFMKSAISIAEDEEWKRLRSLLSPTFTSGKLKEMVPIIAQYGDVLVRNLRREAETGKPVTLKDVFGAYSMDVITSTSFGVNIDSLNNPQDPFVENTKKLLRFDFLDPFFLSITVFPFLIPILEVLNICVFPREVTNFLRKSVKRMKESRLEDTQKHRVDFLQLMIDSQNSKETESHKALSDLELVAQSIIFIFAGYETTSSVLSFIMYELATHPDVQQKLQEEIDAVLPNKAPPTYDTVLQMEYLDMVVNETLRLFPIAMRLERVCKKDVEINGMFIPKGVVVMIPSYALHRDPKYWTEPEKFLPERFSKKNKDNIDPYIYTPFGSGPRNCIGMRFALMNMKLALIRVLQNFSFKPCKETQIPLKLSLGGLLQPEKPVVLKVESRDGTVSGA
T6 sequence (P10635 whole entry): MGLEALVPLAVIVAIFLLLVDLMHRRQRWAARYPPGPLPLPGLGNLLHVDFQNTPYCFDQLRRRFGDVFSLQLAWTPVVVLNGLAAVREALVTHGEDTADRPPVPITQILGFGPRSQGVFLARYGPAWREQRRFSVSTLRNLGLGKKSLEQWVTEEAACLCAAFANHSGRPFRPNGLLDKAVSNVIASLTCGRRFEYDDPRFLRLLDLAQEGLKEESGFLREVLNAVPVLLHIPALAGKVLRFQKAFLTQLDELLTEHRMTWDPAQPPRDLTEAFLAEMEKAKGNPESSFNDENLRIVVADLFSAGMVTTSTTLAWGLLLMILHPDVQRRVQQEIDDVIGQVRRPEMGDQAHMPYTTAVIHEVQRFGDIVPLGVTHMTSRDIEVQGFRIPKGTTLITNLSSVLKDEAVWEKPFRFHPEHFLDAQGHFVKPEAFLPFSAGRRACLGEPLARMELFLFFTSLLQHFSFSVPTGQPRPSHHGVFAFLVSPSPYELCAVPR
T5 sequence (P33261 whole entry): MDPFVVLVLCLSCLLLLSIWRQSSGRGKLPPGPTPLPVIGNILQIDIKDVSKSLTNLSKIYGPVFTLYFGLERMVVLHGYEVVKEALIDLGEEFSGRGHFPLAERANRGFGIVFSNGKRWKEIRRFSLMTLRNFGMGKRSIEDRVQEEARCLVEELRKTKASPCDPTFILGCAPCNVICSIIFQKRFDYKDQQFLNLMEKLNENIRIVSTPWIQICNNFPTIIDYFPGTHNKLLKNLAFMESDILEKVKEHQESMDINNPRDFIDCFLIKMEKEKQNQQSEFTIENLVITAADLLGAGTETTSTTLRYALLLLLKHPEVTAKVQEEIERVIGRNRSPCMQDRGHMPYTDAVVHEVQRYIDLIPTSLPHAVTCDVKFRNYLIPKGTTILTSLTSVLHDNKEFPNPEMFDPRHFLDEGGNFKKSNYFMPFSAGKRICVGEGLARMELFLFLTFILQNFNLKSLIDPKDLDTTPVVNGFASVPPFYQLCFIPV

Broadly, the IC50 is the concentration that gives 50% inhibition. Low values mean greater potency, high ones weaker potency. Broadly, the inhibition is the change of the read-out against control, counted positive when it falls. In turn, `COc1ncc(-c2cc(C)cn3cc(C(=O)N4CCCC4)nc23)cc1NS(=O)(=O)c1ccc(F)cc1` [Compound 35, 4-Fluoro-N-(2-methoxy-5–(6-methyl-2-(pyrrolidine-1-carbonyl)Imidazo[1,2-a]pyridin-8-yl)pyridin-3-yl)benzenesulfonamide] yielded an IC50 against PI3Kα (mean ± SD of two experiments) of 150 ± 20 nM. On PI3Kα (PI3Kα, compound 10 μM, mean ± SD of three determinations, read-out: % Inhibition at 10 μM), the inhibition at 10 µM was above 85%. Moreover, in data set [1] (1 μM, 60 min), the “Remaining (T = 60min)” value is 31.5%. In addition, in data set [1] (SD, rat, rat liver microsomes, pH 7.4, 0.5 mg protein/mL, read-out: Metabolic stability CL int), the microsomal CLint at 1 μM worked out at 43.4 µL/min/mg. Also, the half-life at 1 μM in data set [1] (SD, rat, rat liver microsomes, pH 7.4, 0.5 mg protein/mL, read-out: Metabolic stability T1/2) was 31.9 min. The cell cycle effect result in the data set on T47D cells is “S cell cycle arrest”. At CYP3A4, this compound displayed a CYP3A4 % inhibition of 42.6%. Further, the CYP1A2 % inhibition on CYP1A2 is 9.8%. For the same compound, the CYP2C9 % inhibition at CYP2C9 was found to be 30.6%. The compound also came in with a CYP2C19 % inhibition at CYP2C19 of 25.9%. The CYP2D6 % inhibition on CYP2D6 came to 13.5%.
